The structures appear in SMILES notation.

In one experiment the target is T1, CysH (Cystobacter sp. Cbv34, UniProt A0A0H4NUD7).
T1 construct: full-length A-T module with 38 kDa AMDH domain inserted; E. coli BL21(DE3), pHisSUMOTEV, N-terminal 6xHis tag, TEV protease treated
As to the kind of experiment: intact protein ESI-MS, loading onto T domain. The experiment is classed as biochemical. Conditions: 1 mM ATP, 10 mM MgCl2, pH 7.5, room temperature; covalent (T domain thioester); 1 mM amino acid, 5 µM protein.

A further experiment concerns the target T2, CysH∆AMDH (Cystobacter sp. Cbv34, UniProt A0A0H4NUD7).
T2 construct: E. coli BL21(DE3)
As to the kind of experiment: intact protein ESI-MS, loading onto T domain. The experiment is classed as biochemical. Particulars: 1 mM ATP, 10 mM MgCl2, pH 7.5, room temperature; covalent (T domain thioester); 1 mM amino acid, 5 µM protein.

T1 sequence (A0A0H4NUD7 entry or part of it): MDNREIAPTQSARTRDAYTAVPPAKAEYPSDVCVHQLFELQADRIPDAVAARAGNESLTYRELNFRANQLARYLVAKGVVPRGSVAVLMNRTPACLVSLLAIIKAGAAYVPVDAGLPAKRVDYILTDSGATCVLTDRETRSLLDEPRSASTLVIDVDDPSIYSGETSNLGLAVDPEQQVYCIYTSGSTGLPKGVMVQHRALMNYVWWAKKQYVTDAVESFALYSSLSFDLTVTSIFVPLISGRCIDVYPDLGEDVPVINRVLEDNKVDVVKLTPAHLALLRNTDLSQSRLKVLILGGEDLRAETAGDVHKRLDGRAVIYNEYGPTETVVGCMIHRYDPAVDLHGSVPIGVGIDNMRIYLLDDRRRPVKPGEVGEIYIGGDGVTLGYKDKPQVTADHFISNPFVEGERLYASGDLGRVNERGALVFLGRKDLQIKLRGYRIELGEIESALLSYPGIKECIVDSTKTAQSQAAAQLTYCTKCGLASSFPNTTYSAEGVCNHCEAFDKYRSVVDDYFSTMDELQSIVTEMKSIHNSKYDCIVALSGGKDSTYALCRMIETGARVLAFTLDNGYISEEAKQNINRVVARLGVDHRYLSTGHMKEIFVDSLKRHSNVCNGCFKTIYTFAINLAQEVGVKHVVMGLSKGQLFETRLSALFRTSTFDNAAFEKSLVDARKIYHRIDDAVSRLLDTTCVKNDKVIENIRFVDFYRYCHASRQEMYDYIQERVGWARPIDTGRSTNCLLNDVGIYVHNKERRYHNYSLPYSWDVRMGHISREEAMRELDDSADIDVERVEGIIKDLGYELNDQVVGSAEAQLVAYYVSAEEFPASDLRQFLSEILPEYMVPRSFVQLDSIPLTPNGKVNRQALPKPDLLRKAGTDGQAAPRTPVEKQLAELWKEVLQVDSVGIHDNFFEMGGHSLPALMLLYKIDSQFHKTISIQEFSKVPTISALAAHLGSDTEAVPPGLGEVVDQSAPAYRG
T2 sequence (A0A0H4NUD7 entry or part of it): as above

`NC(=O)C[C@H](N)C(=O)O` [L-asparagine]: the “intact protein ESI-MS, loading onto T domain” value at CysH was “L-asparagine was favored as substrate by CysH”; at CysH∆AMDH, “Incubation of CysH∆AMDH with L-asparagine only resulted in substrate loading”.
Regarding `NC(=O)[C@@H](N)CC(=O)O` [L-isoasparagine], the “intact protein ESI-MS, loading onto T domain” value on CysH was “we also observed loading of L-glutamine, β-cyano-L-alanine, and L-isoasparagine”.

Source of the values: paper PMC7966384, “In vivo and in vitro reconstitution of unique key steps in cystobactamid antibiotic biosynthesis” (Nature Communications, 2021).
